According to patent US20230130925A1 (priority 2020, published 2023):
Where two headings read alike, the source gives them in different places.

Legend:
SARS-cov2 = conditions: person

## Tocilizumab: anti-IL-6 receptor antibody molecule
Influenza A; person with ARDS and shock, after Tocilizumab 600 mg i.v.
  renal and neurological status: continues to have renal and neurological deterioration
SARS-cov2; COPD and diabetes, O2 saturation 87%, Tocilizumab 8 mg/Kg by auto-injector
  clinical course: stabilization
SARS-cov2; fever >38.5° C., O2 saturation 92%, Tocilizumab 8 mg/Kg intravenous infusion
  patient's condition: condition stabilizes initially
SARS-cov2; Tocilizumab 8 mg/Kg by auto-injector
  tolerability: tolerates the medication well

## Cc1nc(Nc2ncc(C(=O)Nc3c(C)cccc3Cl)s2)cc(N2CCN(CCO)CC2)n1 [Dasatinib, reference compound]
Influenza A; human, in vivo, po
  tolerability: tolerates the medication well

B1: Sarilumab: anti-IL-6 receptor antibody molecule (antibody, chains of the INN, looked up, V domains shown)
VH: EVQLVESGGGLVQPGRSLRLSCAASRFTFDDYAMHWVRQAPGKGLEWVSGISWNSGRIGYADSVKGRFTISRDNAENSLFLQMNGLRAEDTALYYCAKGRDSFDIWGQGTMVTVSS
VL: DIQMTQSPSSVSASVGDRVTITCRASQGISSWLAWYQQKPGKAPKLLIYGASSLESGVPSRFSGSGSGTDFTLTISSLQPEDFASYYCQQANSFPYTFGQGTKLEIK
SARS-cov2; COPD and hypertension, O2 saturation 89%, Sarilumab 200 mg subcutaneous, self-administered
  tolerability: tolerates the medication well
